How the values were obtained:
[1] = tested on: RAW264.7; assay: Antiinflammatory activity in LPS-activated mouse RAW264.7 cells assessed as inhibition of nitrite production at 10 uM measured at 24 to 48 hrs after LPS stimulation by ELISA analysis relative to control; type: functional; design: scale not given: the % may be the effect or the level left; settings: time 24-48 hrs
[2] = tested on: RAW264.7; assay: Cytotoxicity against LPS-activated mouse RAW264.7 cells assessed as reduction in cell viability at 10 uM measured at 24 to 48 hrs by MTS assay relative to control; type: toxicity, cell-based; settings: raw264.7, 10 µM, time 24-48 hrs
[3] = tested on: RAW264.7; assay: Antiinflammatory activity in LPS-activated mouse RAW264.7 cells assessed as inhibition of TNF-alpha production at 10 uM measured at 24 to 48 hrs after LPS stimulation by ELISA analysis relative to control; type: functional; design: scale not given: the % may be the effect or the level left; settings: time 24-48 hrs
[4] = Metabolic stability in human liver microsomes assessed as compound remaining at 10 uM using pH 7.4 phosphate buffer incubated for 60 mins in the absence of NADPH regenerating system by LC/MS analysis (reference value: 100%); type: ADME, Microsome; settings: read-out: Stability
[5] = Metabolic stability in human liver microsomes assessed as compound remaining at 10 uM using pH 7.4 phosphate buffer incubated for 60 mins in the presence of NADPH regenerating system by LC/MS analysis (reference value: 100%); type: ADME, Microsome; settings: read-out: Stability
[6] = Metabolic stability in human liver microsomes assessed as compound remaining at 10 uM using pH 7.4 phosphate buffer incubated for 30 mins in the presence of NADPH regenerating system by LC/MS analysis (reference value: 100%); type: ADME, Microsome; settings: read-out: Stability
[7] = Metabolic stability in human liver microsomes assessed as compound remaining at 10 uM using pH 7.4 phosphate buffer incubated for 30 mins in the absence of NADPH regenerating system by LC/MS analysis (reference value: 100%); type: ADME, Microsome; settings: read-out: Stability

Row | SMILES | Activity [1] [%] | Activity [2] [%] | Activity [3] [%] | remaining at 1 h, 10 µM [4] [%] | remaining at 1 h, 10 µM [5] [%] | remaining at 0.5 h, 10 µM [6] [%] | remaining at 0.5 h, 10 µM [7] [%]
1 | Nc1ccc(F)c2c1C(=O)N(C1CCC(=S)NC1=O)C2=O (centres undefined) | 59 | 112.4 | 107 |  |  |  | 
2 | Nc1ccc(F)c2c1C(=O)N(C1CCC(=O)NC1=O)C2=O (centres undefined) | 86 | 100.9 | 98 |  |  |  | 
3 | Nc1ccc(F)c2c1C(=S)N(C1CCC(=S)NC1=O)C2=O (centres undefined) | 22 | 95 | 104.1 | 46 | 41 | 64 | 71
4 | CC(C)Nc1ccc(F)c2c1C(=O)N(C1CCC(=S)NC1=O)C2=O (centres undefined) | 74.8 | 112.3 | 94.4 |  |  |  | 
5 | O=C1NC(=S)CCC1N1C(=O)c2c(F)ccc([N+](=O)[O-])c2C1=O (centres undefined) | 4.7 | 44.9 | 51.3 |  |  |  | 
6 | CC(C)Nc1ccc(F)c2c1C(=S)N(C1CCC(=S)NC1=O)C2=O (centres undefined) | 32.3 | 74.1 | 74.7 |  |  |  | 
7 | Nc1c(F)ccc2c1C(=S)N(C1CCC(=S)NC1=O)C2=O (centres undefined) | 40 | 92 | 114 |  |  |  | 
8 | CC(C)Nc1ccc(F)c2c1C(=O)N(C1CCC(=O)NC1=O)C2=O (centres undefined) | 110.1 | 99.9 | 87.1 |  |  |  | 
9 | O=C1CCC(N2C(=O)c3c(F)ccc([N+](=O)[O-])c3C2=O)C(=O)N1 (centres undefined) | 56.8 | 104.9 | 86 |  |  |  | 
10 | Nc1cccc2c1C(=S)N(C1CCC(=S)NC1=O)C2=O (centres undefined) | 43 | 92 | 113 | 53 | 48 | 68 | 71
11 | Nc1c(F)ccc2c1C(=O)N(C1CCC(=O)NC1=O)C2=O (centres undefined) | 100 | 90 | 93 |  |  |  | 
12 | Nc1cccc2c1C(=O)N(C1CCC(=O)NC1=O)C2=O (centres undefined) [POMALIDOMIDE] | 91 | 95 | 95 |  |  |  | 
